# Assay results reported in patent publication US20250221944A1, “COMPOSITION FOR PREVENTING OR TREATING MULTIPLE MYELOMA COMPRISING NOVEL CHROMANON COMPOUND AS ACTIVE INGREDIENT” (KBLUEBIO INC, priority 2022, published 2025).
# What was measured:
# [1] = initial acute toxicity evaluation (liver, kidney, cardiac markers); format: in vivo; conditions: rats, 5 mg/kg intravenously (femoral vein), blood 3 hours later
# Experimental: As an initial toxicity evaluation of KBB-NX series synthetic compounds, KBB-NX-16 and KBB-NX-20 were injected intravenously into the femoral vein of rats at a dose of 5 mg/kg and blood was collected 3 hours later to test for markers of liver toxicity (marker ALT), nephrotoxicity (BUN, creatinine) and cardiotoxicity (CK-MB, myoglobin).
# RPMI8226-GFP-FLUC cells = test: mouse model of multiple myeloma (RPMI8226-GFP-FLUC, tail vein); format: in vivo, NSG mice; conditions: 5 mg/kg intravenously, 2 days per week for 3 cycles, untreated group all died on day 50
# Experimental: A total of 12 male NSG (NOD scid gamma) mice were used. The animals were housed in a semi-specific pathogen free (Semi-SPF) animal house at the Chonnam National University Center for Biomedical Science Convergence at a temperature of 20-24° C., humidity of 40-60%, and a 12-hour light/dark cycle, with 5 animals per cage. Sterile water and feed were provided ad libitum, and all experimental procedures were in accordance with the Animal welfare act and approved by the Institutional Animal Care and Use Committee of Chonnam National University (Approval No.: CNU IACUC-H-2020-36). […]
# Mice were injected with RPMI8226-GFP-FLUC cells, and 8 days later, cancer formation was determined using an in vivo imaging system (IVIS) (NightOWL II LB983 NC100, Berthold, Germany). […]
# Meanwhile, a multiple myeloma cell line (RPMI8226) was transfected with a puromycin resistance gene and a luciferase-GFP gene using a lentiviral vector at the EF1a promoter site, and the dynamics of MM cells in mice were identified and monitored by an in vivo bioluminescence imaging assay (FIG. 28). The transgenic multiple myeloma cell line, which can be monitored in vivo, was injected 1×10^7 cells/ml through the tail vein of 6-11 week old combined immunodeficient NSG mice to establish a mouse model of multiple myeloma. […]
SMILES,"cardiotoxicity (CK-MB, myoglobin) [1]",hepatotoxicity (marker ALT) [1],"nephrotoxicity (BUN, creatinine) [1]",survival after transplantation (RPMI8226-GFP-FLUC cells)
"COc1cc(O)c(CC=C(C)C)c2c1C(=O)CC(c1ccc(C(C)C)cc1)O2 (centres unmarked) [KBB-NX-16, 7-hydroxy-2-(4-isopropylphenyl)-5-methoxy-8-(3-methylbut-2-en-1-yl)chroman-4-one]",did not exhibit significant,did not exhibit significant,did not exhibit significant,–
"Nc1cccc2c1CN(C1CCC(=O)NC1=O)C2=O (centres unmarked) [lenalidomide, 3-(4-amino-1-oxoisoindolin-2-yl)piperidine-2,6-dione, reference compound]",–,–,–,64 days
"COc1cc(O)cc(O)c1C(=O)/C=C/c1ccc(O)cc1 [KBB-NX-2, (E)-1-(2,4-dihydroxy-6-methoxyphenyl)-3-(4-hydroxyphenyl)prop-2-en-1-one]",–,–,–,64 days
"COc1cc(O)cc2c1C(=O)CC(c1ccc(C)s1)O2 (centres unmarked) [KBB-NX-20, 7-hydroxy-5-methoxy-2-(5-methylthiophene-2-yl)chroman-4-one]",did not exhibit significant,did not exhibit significant,did not exhibit significant,–
